These results are taken from PMC11513892, “Discovery of a Series of Macrocycles as Potent Inhibitors of Leishmania Infantum” (Journal of Medicinal Chemistry, 2024).

Data set [1] in a line: Metabolite identification after incubation with rat liver microsomes. The data set is classed as in vitro ADME. As to conditions: Figure S3: rat liver microsomes, samples at 5, 10, 20, 30 and 60 minutes. As for the experimental part:
page 4: Figure S2. Endo and exo conformations for compound 5, obtained using the Monte Carlo-QM protocol for conformational sampling. Minimum energy conformations (MECs) and all conformations within 5 kcal/mol of the MECs are shown. Figure S3. Metabolically labile sites (indicated by red circles) observed for compound 3 after incubation with rat liver microsomes. Samples were collected at 5, 10, 20, 30 and 60 minutes. […]
(In general: Microsomes from liver hold many membrane-bound enzymes, among them those of drug oxidation.)

The test system of a further data set is T. b. rhodesiense. Description: Growth of T. b. rhodesiense trypomastigotes in axenic culture. The data set is classed as cell-based, Trypanosoma brucei rhodesiense. The conditions noted are these: Trypanosoma brucei, RHODESIENSE / STIB900; CSV supplement; decimal comma; read-out: EC50 T.b. rhodesiense STIB 900. An excerpt:
(§1) We previously reported the synthesis of a series of macrocycles, including 1 (Figure 2A), designed to investigate how structural features influence molecular chameleonicity.[15],[21] Originating from the structural similarities between 1 and hymenocardine, we investigated 1 in screens for P. falciparum and four kinetoplastid parasites: T. b. brucei, T. b. rhodesiense, T. cruzi, and L. infantum. In the screens, we also included compounds 2 and 3 (Figure 2A), which were obtained from an intermediate late in the synthetic route to 1. Since very few validated protein targets relevant to clearance of parasites are known, phenotypic assays were used to investigate the antiparasitic activity for all five parasites. For malaria, the P. falciparum blood stage 3D7 strain was used to test the three compounds. For the two Trypanosoma brucei species, the reduction in trypomastigote growth in culture medium was determined after the addition of 1–3. For T. cruzi, the intracellular parasite growth in infected human fibroblasts (MRC-5 cell line) was assessed in the presence and absence of the three inhibitors. Similarly, the growth of L. infantum was assessed in infected primary mouse macrophages (PMMs) in the presence and absence of the inhibitors. […] The assays for T. cruzi and L. infantum are complex, i.e., they determine the degree of inhibition of parasitic replication in a mammalian cell line; this complexity may lead to a high variability for some compounds.
(§2) The growth of the P. falciparum blood stage 3D7 strain,[53] the two T. brucei species in axenic cultures,[54]T. cruzi in infected human fibroblasts (MRC-5 cell line),[55] and of L. infantum in infected primary mouse macrophages (PMMs)[56] was determined as previously reported in the presence and absence of inhibitors 1–12.

For data set [2], the system named is P. falciparum blood stage 3D7 strain. Description: Growth of P. falciparum blood stage 3D7 strain (phenotypic). The data set is classed as cell-based, Plasmodium falciparum. As to conditions: Figure 2A.
Description: as §1, §2

Data set [3] concerns primary mouse macrophages (PMMs). Description: Host cell cytotoxicity in primary mouse macrophages (PMM). Format: cell-based. The conditions noted are these: CSV supplement; decimal comma.
For another data set, the system named is MDR1. Description: in vitro. Format: in vitro ADME, canine. The conditions noted are these: dog; for Papp B→A: MDCK-MDR1, pH 7.4; for Papp A→B: MDCK-MDR1, pH 7.4, Papp AB. As to the method: (§3) The potency of macrocycles 1–12 to inhibit the growth of L. infantum was determined in a phenotypic assay in which the parasite was grown in primary peritoneal mouse macrophages (PMMs). To understand whether the SAR for inhibition of parasitic growth is impacted by low cell permeability, the permeability of compounds 1–12 was determined separately. Madin-Darby canine kidney (MDCK) cells transfected with the human MDR1 (multidrug resistance 1) gene (MDCK-MDR1 cells) were used to determine permeabilities in the apical to basolateral direction (Papp AB) as well as efflux ratios (ERs). […] Lipophilicity (Log D at pH 7.4), aqueous kinetic solubility and mouse liver microsomal metabolism were also determined for 1–12, and are discussed separately (cf. physiochemical properties and ADMET, below).
(§4) The kinetic solubility in phosphate buffered saline at pH 7.4, chromatographic Log D at pH 7.4, cell permeability across a MDCK-MDR1 cell monolayer at pH 7.4, and the clearance in mouse liver microsomes of 1–12 was determined at TCG Lifesciences.

The nature of data set [4]: Chromatographic Log D at pH 7.4. Format: physicochemical. The conditions noted are these: 1-octanol/PBS pH 7.4, determined by chromatography, mean of two measurements. As to the method: as §4
For another data set, the system named is T. b. brucei. Description: Growth of T. b. brucei trypomastigotes in axenic culture. The data set is classed as cell-based. The conditions noted are these: Trypanosoma brucei.
Description: as §1, §2

The test system of the next data set is Leishmania donovani. Description: Activity against Leishmania donovani. Format: cell-based.
The next data set deals with MRC-5 cells. The experiment in a line: Host cell cytotoxicity in MRC-5 cells. Format: cell-based, human. As to conditions: CSV supplement; decimal comma.
The subject of the next data set is T. cruzi. The experiment in a line: Intracellular growth of T. cruzi in infected human fibroblasts (MRC-5 cell line). Format: cell-based. The conditions noted are these: Trypanosoma cruzi.
Description: as §1, §2

A further data set relates to L. infantum. Description: Growth of L. infantum in infected primary mouse macrophages (PMMs), phenotypic assay. As to conditions: Leishmania infantum, Macrophage. Format: cell-based, Leishmania infantum.
Description: as §1, §3, §2

Data set [5] in a line: Clearance in human microsomes. The data set is classed as in vitro ADME. The conditions noted are these: CSV supplement. An excerpt:
Supplement jm4c01370_si_002.csv, table | column: CLint in vitro Human Microsomes µL/min/mg; t(1/2) min

The nature of data set [6]: Kinetic solubility in phosphate buffered saline at pH 7.4. Format: physicochemical. The conditions noted are these: phosphate buffered saline. As to the method: as §4
Data set [7] is described as follows: Clearance in mouse liver microsomes. The data set is classed as in vitro ADME. The conditions noted are these: for microsomal CLint: mouse, liver microsomes. As to the method: as §4
For another data set, the system named is MDCK-MDR1 cells. The experiment in a line: in vitro. The data set is classed as in vitro ADME, canine. The conditions noted are these: dog, MDCK-MDR1, pH 7.4. As for the experimental part:
as §3, §4

The mark [8] stands for this setting: MDCK-MDR1, pH 7.4, ER, efflux ratio (BA/AB).
The mark [9] stands for this setting: MDCK-MDR1, pH 7.4, MDCK MDR1 - pH 7.4 Efflux Ratio.
Setting [10] is: CSV supplement, decimal comma, read-out: EC50 T.b. brucei Squib 427.
Setting [11] is: Table S1, mean (SD), 2 to 14 measurements, unit not given in Table S1, read-out: In vitro potency, T. b. brucei.
The mark [12] stands for this setting: TULAHUEN, MRC5, read-out: EC50 T. cruzi Tulahuen C4 (LacZ).
[13] abbreviates: Table 1, mean (standard deviation, number of measurements), read-out: EC50 (μM), inhibition of the growth of L. infantum.
Where [14] appears, read: pH 7.4, CSV supplement, read-out: Kinetic solubility.
[15] abbreviates: pH 7.4, phosphate buffered saline pH 7.4, assay range 2.5–200 μM, read-out: solubility (kinetic).
Setting [16] is: CSV supplement, read-out: CLint in vitro Mouse Microsomes.
The mark [17] stands for this setting: incubation with mouse liver microsomes, read-out: CLint.

The structures appear in SMILES notation. Like-named read-outs stand apart in the source and are kept apart here.

On to `CC(C)(C)OC(=O)N[C@H]1Cc2ccc(cc2)Oc2ccc(cc2NC(=O)c2ccccn2)C(=O)CNC(=O)[C@H](Cc2ccccc2)NC1=O` [Compound 3, tert-Butyl ((8S,11S)-8-Benzyl-4,7,10-trioxo-3^2-(picolinamido)-2-oxa-6,9-diaza-1,3(1,4)-dibenzenacyclododecaphane-11-yl)carbamate], for which the “metabolite identification, sites of metabolism” value in data set [1] is “oxidative metabolism occurring at the P2 and P3 positions, and at the α-carbon atom of the tyrosine moiety in the macrocyclic ring”. The EC50 with T. b. rhodesiense was 9.1 µM; in [2] (Plasmodium falciparum, 3D7, mean (SD) from 2 to 14 measurements), 3 µM; in the data set with T. b. brucei (setting [10]), 15.1 µM; with T. b. brucei (setting [11]), 15 µM; with Leishmania donovani, 1.04 ± 0.25 µM; in the data set with T. cruzi (MRC5, Figure 2A, mean (SD) from 2 to 14 measurements, read-out: EC50 T. cruzi) it was 10 to 30 µM. Also, the EC50 in the data set on T. cruzi (setting [12]) was 20 µM; with L. infantum (Figure 2, mean (SD), miltefosine from 19 measurements, read-out: EC50 L. infantum) it was under 2 µM; in the data set on L. infantum (setting [13]) it was 1.8 µM. The “potency as inhibitor of P. falciparum (in words)” value in data set [2] was “moderately potent”. Also, in data set [3], the “PMM Primary Mouse Macrophages (inf-LMPH) (cytotoxicity)” value is reported as over 64 µM. In addition, the Papp B→A (as a rule, the apparent permeability from the basolateral to the apical side of a cell layer) with MDR1 amounted to 22.2 ×10⁻⁶ cm/s. For the same compound, the efflux ratio in the data set with MDR1 (setting [8]) and with MDR1 (setting [9]) was 6.4 in each case. Further, in the data set with MDR1, the Papp A→B (in general, how fast a substance crosses the layer from the apical side) is 3.5 ×10⁻⁶ cm/s. In addition, the chromatographic logD (commonly lipophilicity estimated from chromatographic retention) in data set [4] amounted to 4.9. Moreover, in the data set with MRC-5 cells, the “MRC-5 cells Human Lung Fibroblast Cells (cytotoxicity)” value is on record as 57,6 µM. Moreover, the “t(1/2), Human Microsomes” value in [5] is under 3 min. In addition, the microsomal CLint in data set [5] (human, microsomes, read-out: CLint in vitro Human Microsomes) was over 578 µL/min/mg; in data set [7] (setting [16]), over 578 µL/min/mg; in data set [7] (setting [17]) it was over 580 µL/min/mg. Moreover, the kinetic solubility (commonly the concentration staying in solution when a stock, usually in DMSO, is diluted into the medium) in data set [6] (setting [14]) was 1 µg/mL; in [6] (setting [15]) it was under 2.5 µM. For the same compound, the “t(1/2), Mouse Microsomes” value in [7] (CSV supplement) is on record as under 3 min.

For `CC(C)(C)OC(=O)N[C@H]1Cc2ccc(cc2)Oc2ccc(cc2NC(=O)c2ccccn2)CCNC(=O)[C@H](Cc2ccccc2)NC1=O` [Compound 6, tert-Butyl ((8S,11S)-8-Benzyl-7,10-dioxo-3^2-(picolinamido)-2-oxa-6,9-diaza-1,3(1,4)-dibenzenacyclododecaphane-11-yl)carbamate], the EC50 was found to be 6.3 µM in the data set with T. b. rhodesiense; 11.8 µM in the data set with T. b. brucei (setting [10]); 12 µM with T. b. brucei (setting [11]); 19 µM in the data set on T. cruzi (MRC5, Table S1, mean (SD), 2 to 14 measurements, unit not given in Table S1, read-out: In vitro potency, T. cruzi); 18.8 µM with T. cruzi (setting [12]); 12.3 µM in the data set on L. infantum (CSV supplement, decimal comma, read-out: EC50 L. infantum MHOM/MA(BE)/67). In the data set on L. infantum (setting [13]), the EC50 amounted to 12 µM. Moreover, the “PMM Primary Mouse Macrophages (inf-LMPH) (cytotoxicity)” value in data set [3] is 16,0 µM. Moreover, the “Papp AB” value with MDCK-MDR1 cells is listed as 9.5 ×10^–6 cm/s. In the data set on MDR1, the Papp B→A worked out at 79.9 ×10⁻⁶ cm/s. In addition, the efflux ratio in the data set on MDR1 (setting [8]) and in the data set on MDR1 (setting [9]) was 8.4 each time. Besides, the Papp A→B in the data set with MDR1 was over 5 ×10⁻⁶ cm/s. Further, in data set [4], the chromatographic logD came to 5.1. In the data set on MRC-5 cells, the “MRC-5 cells Human Lung Fibroblast Cells (cytotoxicity)” value is 45,8 µM. Also, the results for the kinetic solubility in data set [6] (setting [14]) and in data set [6] (setting [15]) were 3.8 µg/mL and 5.9 µM, respectively. The “t(1/2), Mouse Microsomes” value in data set [7] (CSV supplement) is given as under 3 min. The results for the microsomal CLint in [7] (setting [16]) and in [7] (setting [17]) were over 578 µL/min/mg and over 580 µL/min/mg, respectively.
